Test results: ChEMBL document CHEMBL1201862, “PubChem BioAssay data set” (2004)
Counter-ions that a name gives are not always drawn. Calls of active or inactive are those of the source.

Experiments:
HeLa = experiment: HeLa cell cytotoxicity, dose response, cytotoxicity control for MITF activator project, CellTiter-Glo luminescence, cherry-pick samples (AID 540259); format: functional, cell-based; details: Homo sapiens
[1] = target: Voltage-gated inwardly rectifying potassium channel KCNH2 (Homo sapiens, UniProt Q12809); details: Potency;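 also: confirmatory quantitative high-throughput screen measuring inhibition of hERG channel activity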
[2] = target: T1, Apoptotic protease-activating factor 1 (Homo sapiens, UniProt O14727); format: functional
T1 sequence (O14727 whole entry): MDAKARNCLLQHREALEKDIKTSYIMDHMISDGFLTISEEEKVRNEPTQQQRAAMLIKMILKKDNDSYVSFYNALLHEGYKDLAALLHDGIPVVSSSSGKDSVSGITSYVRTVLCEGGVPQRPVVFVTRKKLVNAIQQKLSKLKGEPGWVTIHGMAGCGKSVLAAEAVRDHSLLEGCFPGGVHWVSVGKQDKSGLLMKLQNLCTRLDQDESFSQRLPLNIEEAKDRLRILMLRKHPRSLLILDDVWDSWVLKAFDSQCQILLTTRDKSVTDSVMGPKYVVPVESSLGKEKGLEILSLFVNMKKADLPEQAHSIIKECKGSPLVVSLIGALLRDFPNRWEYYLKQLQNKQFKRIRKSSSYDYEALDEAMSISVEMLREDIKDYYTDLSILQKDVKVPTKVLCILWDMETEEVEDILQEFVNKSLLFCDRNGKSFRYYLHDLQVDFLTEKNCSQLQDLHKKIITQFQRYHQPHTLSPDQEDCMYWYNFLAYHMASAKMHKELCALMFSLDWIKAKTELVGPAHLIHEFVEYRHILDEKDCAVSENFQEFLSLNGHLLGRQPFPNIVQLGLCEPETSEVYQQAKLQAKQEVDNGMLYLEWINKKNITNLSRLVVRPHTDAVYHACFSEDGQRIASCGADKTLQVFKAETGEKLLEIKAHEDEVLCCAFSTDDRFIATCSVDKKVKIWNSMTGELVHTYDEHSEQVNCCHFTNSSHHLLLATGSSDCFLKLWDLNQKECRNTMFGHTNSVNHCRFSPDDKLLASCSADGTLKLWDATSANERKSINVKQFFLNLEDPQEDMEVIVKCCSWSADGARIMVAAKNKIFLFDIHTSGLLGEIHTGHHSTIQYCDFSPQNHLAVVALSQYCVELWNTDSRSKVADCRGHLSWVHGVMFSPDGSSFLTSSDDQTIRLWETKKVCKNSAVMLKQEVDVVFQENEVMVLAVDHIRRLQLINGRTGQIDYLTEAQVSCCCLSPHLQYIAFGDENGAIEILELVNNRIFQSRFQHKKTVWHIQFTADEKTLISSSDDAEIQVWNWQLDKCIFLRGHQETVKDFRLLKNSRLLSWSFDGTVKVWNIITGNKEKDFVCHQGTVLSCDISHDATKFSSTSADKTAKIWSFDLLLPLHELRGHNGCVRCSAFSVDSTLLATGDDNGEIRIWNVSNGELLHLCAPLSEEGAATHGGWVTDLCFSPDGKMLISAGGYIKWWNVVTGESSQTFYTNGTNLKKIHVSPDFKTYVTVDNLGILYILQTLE

[3] = cytotoxicity toward NIH3T3 fibroblasts, dose response, counter-screen, cell-based, ATP luminescence, mouse fibroblasts (AID 2010); format: functional;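 also: cells exposed to compound for about 90 hours before reading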
[4] = inhibitors of intracellular T. cruzi replication, confirmation, NIH3T3 host cells, beta-gal luminescence (AID 2044); format: functional, cell-based;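 also: intracellular parasites grown in NIH/3T3 mouse fibroblasts as host cells; luminescent beta-galactosidase reporter signal from transgenic T. cruzi replicating inside host cells; inhibitors lower the luminescence signal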
[5] = cytotoxicity toward DRD oncogenic fibroblasts, dose response, cell-based, non-viral oncogenic, luminescence (AID 1934); format: functional; details: Homo sapiens
BJ [6] = experiment: cytotoxicity toward BJ-TERT-LT-ST fibroblasts, dose response, cell-based, RAS-independent, luminescence (AID 1935); format: functional; details: Homo sapiens;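 also: BJ fibroblasts immortalized with TERT plus LT and ST oncogenes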
BJ [7] = experiment: cells; format: functional, cell-based; details: Homo sapiens
BJ [8] = experiment: cytotoxicity toward BJ-TERT fibroblasts, dose response, cell-based, RAS-independent, luminescence (AID 1933); format: functional; details: Homo sapiens
BJ [9] = experiment: cytotoxicity toward Ras-transformed BJeLR fibroblasts, dose response, cell-based, alamar blue fluorescence, cherrypicked samples (AID 2631); format: functional; details: Homo sapiens;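 also: confirmatory dose-response assay in RAS-dependent BJ fibroblasts engineered with TERT, LT and ST, with cytotoxicity read by fluorescence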
Estrogen receptor = target: T2, Estrogen receptor (Homo sapiens, UniProt P03372);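 also: potency for inhibiting coactivator peptide recruitment to the receptor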
T2 sequence (P03372 whole entry): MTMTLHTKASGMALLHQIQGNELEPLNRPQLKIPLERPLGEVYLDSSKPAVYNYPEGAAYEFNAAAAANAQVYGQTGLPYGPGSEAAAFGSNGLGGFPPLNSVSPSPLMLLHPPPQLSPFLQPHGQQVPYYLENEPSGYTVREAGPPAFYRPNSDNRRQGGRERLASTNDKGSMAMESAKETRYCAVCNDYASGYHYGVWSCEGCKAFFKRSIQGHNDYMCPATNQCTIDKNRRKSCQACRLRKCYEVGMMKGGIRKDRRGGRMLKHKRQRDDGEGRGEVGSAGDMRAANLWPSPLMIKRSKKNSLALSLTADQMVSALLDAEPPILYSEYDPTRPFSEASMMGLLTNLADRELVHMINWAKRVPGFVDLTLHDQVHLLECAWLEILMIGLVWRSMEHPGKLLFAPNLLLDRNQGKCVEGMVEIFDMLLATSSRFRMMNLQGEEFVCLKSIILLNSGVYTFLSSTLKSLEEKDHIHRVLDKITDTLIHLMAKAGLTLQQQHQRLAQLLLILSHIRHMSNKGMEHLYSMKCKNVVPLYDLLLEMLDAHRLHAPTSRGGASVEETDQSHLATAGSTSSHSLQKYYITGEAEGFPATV

[10] = target: T3, Polyadenylate-binding protein 1 (Homo sapiens, UniProt P11940); experiment: PABP1 MLLE–PAM2 interaction inhibitors, dose response, miRNA deadenylation inhibitor project, biochemical, fluorescence polarization, Cy5-PAM2 peptide, secondary (AID 602260); format: functional; details: read-out: IC50_Mean
[11] = target: T3, Polyadenylate-binding protein 1; experiment: PABP1 MLLE–PAM2 binding inhibitor potency, dose response, biochemical, fluorescence polarization, FITC-PAM2 peptide (AID 602259); format: functional; details: read-out: IC50_Mean
[12] = target: T4, Heat shock factor protein 1 (Mus musculus, UniProt P38532); experiment: HSF1 potentiators in luciferase reporter cells, confirmation, cell-based, NIH3T3, luminescence, dose retest (AID 435004); format: functional;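 also: stress induced by proteasome inhibitor MG132 added 30 min after compound; luciferase reporter driven by HSF1 response element in NIH3T3 cells; actives raise luminescence as potentiators of the MG132 stress response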
T4 sequence (P38532 whole entry): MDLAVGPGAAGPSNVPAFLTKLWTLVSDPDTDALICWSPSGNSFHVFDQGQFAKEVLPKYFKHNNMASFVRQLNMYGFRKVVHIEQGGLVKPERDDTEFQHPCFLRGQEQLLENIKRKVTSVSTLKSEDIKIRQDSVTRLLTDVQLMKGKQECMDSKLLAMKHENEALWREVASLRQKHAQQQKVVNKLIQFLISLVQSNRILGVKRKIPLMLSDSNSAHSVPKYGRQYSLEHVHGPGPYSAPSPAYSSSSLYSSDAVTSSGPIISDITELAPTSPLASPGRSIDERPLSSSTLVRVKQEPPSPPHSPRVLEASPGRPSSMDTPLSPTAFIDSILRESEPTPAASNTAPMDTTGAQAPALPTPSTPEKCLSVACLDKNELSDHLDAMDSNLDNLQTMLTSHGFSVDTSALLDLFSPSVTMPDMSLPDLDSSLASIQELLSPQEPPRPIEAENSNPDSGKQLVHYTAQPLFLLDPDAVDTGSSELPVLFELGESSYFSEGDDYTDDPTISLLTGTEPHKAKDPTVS

Genome polyprotein = Genome polyprotein (dengue virus type 2, UniProt P29990); experiment: Dengue-2 NS5 methyltransferase inhibitors, primary screen, biochemical, confirmation dose response (AID 588689); format: functional
Sequence of Genome polyprotein (P29990 2492-3391 limits assumed): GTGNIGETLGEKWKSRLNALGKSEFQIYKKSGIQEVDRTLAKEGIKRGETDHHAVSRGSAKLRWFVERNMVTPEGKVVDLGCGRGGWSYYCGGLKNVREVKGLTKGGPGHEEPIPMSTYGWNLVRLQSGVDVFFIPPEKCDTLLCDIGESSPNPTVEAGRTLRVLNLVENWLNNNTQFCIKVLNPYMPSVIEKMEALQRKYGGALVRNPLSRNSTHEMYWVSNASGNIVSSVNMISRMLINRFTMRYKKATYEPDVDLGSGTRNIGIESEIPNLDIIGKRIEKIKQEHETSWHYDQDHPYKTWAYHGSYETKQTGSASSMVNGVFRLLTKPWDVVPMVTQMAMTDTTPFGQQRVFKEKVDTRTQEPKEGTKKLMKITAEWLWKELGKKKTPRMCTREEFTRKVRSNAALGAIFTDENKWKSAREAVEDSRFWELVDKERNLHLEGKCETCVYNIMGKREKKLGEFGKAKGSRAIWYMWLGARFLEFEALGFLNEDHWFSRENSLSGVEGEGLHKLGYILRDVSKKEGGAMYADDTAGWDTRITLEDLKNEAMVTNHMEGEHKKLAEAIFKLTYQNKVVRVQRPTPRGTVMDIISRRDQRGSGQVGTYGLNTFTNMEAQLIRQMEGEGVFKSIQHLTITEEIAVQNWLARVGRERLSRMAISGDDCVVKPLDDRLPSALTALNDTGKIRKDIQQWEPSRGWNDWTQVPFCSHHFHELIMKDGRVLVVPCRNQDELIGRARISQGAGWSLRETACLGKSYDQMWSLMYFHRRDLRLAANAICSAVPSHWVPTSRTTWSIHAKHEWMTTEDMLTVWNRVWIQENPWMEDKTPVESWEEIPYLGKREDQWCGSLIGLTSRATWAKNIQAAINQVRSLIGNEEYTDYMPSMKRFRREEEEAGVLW

Sequence of Voltage-gated inwardly rectifying potassium channel KCNH2 (Q12809 whole entry): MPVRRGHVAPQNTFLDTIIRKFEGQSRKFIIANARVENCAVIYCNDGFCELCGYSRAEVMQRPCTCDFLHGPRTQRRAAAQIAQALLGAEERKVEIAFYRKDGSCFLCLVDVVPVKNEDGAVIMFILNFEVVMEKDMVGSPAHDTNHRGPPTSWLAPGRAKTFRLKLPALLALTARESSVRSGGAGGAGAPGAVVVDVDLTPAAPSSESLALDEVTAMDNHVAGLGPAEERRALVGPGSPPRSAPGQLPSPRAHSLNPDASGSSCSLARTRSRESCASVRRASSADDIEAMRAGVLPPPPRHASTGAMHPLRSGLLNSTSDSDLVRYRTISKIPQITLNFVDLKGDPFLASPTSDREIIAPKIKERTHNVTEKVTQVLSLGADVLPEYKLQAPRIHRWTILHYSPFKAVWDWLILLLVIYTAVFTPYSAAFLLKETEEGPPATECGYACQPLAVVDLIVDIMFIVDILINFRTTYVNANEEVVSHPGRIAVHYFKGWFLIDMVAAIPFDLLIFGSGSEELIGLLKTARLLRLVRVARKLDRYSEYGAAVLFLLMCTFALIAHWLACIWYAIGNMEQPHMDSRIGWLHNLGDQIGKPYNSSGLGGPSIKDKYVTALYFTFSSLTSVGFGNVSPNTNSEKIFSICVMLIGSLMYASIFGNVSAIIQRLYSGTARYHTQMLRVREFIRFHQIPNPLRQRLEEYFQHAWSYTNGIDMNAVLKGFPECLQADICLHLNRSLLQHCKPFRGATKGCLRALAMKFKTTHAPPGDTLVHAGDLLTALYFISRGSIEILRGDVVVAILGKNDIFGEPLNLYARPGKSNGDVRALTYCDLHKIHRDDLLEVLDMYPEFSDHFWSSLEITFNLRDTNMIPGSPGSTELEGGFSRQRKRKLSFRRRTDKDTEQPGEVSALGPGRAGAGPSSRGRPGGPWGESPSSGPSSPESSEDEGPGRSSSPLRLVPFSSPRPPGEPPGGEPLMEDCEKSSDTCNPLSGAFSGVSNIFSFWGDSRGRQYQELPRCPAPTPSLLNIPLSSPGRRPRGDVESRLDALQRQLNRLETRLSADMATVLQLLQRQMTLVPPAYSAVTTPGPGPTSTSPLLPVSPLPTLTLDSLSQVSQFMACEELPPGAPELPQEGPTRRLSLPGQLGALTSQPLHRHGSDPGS
T3 sequence (P11940 whole entry): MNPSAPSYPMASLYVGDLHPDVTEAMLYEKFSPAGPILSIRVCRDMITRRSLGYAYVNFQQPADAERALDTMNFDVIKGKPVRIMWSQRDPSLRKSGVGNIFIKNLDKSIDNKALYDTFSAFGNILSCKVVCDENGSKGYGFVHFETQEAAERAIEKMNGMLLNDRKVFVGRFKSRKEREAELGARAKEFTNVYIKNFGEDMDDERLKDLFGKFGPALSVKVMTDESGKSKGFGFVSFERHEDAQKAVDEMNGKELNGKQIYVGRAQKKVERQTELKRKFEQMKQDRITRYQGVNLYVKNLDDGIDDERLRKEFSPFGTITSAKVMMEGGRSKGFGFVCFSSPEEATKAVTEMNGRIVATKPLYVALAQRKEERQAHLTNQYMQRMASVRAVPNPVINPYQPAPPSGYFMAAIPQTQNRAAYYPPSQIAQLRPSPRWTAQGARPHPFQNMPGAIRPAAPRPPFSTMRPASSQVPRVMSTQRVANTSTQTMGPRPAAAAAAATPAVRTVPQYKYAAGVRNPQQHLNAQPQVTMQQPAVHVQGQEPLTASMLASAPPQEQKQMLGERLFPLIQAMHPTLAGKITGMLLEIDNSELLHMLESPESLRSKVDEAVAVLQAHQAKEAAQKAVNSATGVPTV

Compound: C1=C(c2cc3ccccc3cn2)CCCC1
- AC50 (HeLa): 51.3 µM (active)

Compound: CCn1cnc2c(Nc3cccc(Cl)c3)nc(N[C@@H]3CCCC[C@@H]3N)nc21
- AC50 [1]: 17.8 µM (inconclusive)

Compound: CC(=O)Nc1c(-c2ccc3ccccc3c2)nc2ccccn12
- AC50 (HeLa): 213 µM (active)

Compound: C[C@H](N)CN1CCc2ccc(Br)cc21
- AC50 [1]: 20 µM (inconclusive)

Compound: COC(=O)[C@H]1[C@H]2C[C@H]3c4[nH]c5ccccc5c4CCN3C[C@H]2CC[C@@H]1O [RAUWOLSCINE HYDROCHLORIDE]
- AC50 [1]: 25.1 µM (inconclusive)

Compound: CCOC(=O)C1OC1c1ccccc1 (stereo unspecified)
- AC50 [1]: 35.5 µM (inconclusive)

Compound: CC(=O)c1ccc(NC(=O)c2noc3c2CCCCC3)cc1
- AC50 (HeLa): > 350 µM (inactive)

Compound: COc1ccc(CN(C)C(=O)c2cc(S(=O)(=O)NCc3ccccc3)ccc2C)c(OC)c1
- IC50 [2]: > 100 µM (inactive)

Compound: Cc1cc(CN(C)C(=O)c2ccc3nc(Cc4ccccc4F)oc3c2)on1
- AC50 (HeLa): 68.2 µM (active)

Compound: Cc1ccc(Nc2cc(C)c3c(O)cccc3n2)cc1C
- EC50 [3]: > 30 µM (not active)
- AC50 (HeLa): 34.5 µM (active)
- EC50 [4]: 2.81 µM (active)

Compound: O=[N+]([O-])c1ccccc1N/N=C\c1ccccc1Cl
- EC50 [5]: 29.8 µM (inconclusive)
- EC50 (BJ [6]): > 150 µM (not active)
- EC50 (BJ [7]): 103 µM (active)
- EC50 (BJ [8]): > 150 µM (not active)
- EC50 (BJ [9]): > 133 µM (inactive)

Compound: O=S(=O)(/N=C(/Sc1ccccc1)c1ccccc1)c1ccccc1
- IC50 (Estrogen receptor): 10.2 µM (active)
- IC50 [10]: > 66 µM (inactive)
- IC50 [11]: > 66 µM (inactive)

Compound: O=C(O)C(Cc1ccccc1)N1C(=O)c2c(Cl)c(Cl)c(Cl)c(Cl)c2C1=O (stereo unspecified)
- EC50 [12]: 37.1 µM (active)
- IC50 (Genome polyprotein): 39.7 µM (active)

Compound: CCCCC1=CC2=CC(=O)C(C)(OC(=O)CC)C(=O)C2=CN1Cc1ccc(OC)cc1 (stereo unspecified)
- IC50 (Genome polyprotein): > 100 µM (active)

Compound: [H][C@]12[N@]3CC=C[C@@]1(CC)[C@@H](OC(C)=O)[C@](O)(C(=O)OC)C1N(C)c4cc(OC)c([C@@]5(C(=O)OC)CC6CN(CCc7c5[nH]c5ccccc75)CC(O)(CC)C6)cc4[C@@]12CC3 (stereo partly specified)
- AC50 [1]: 35.5 µM (inconclusive)

Compound: C(=NC1CCCCC1)=NC1CCCCC1 [DICYCLOHEXYLCARBODIIMIDE]
- AC50 [1]: 70.8 µM (inconclusive)

Compound: C#C[C@]1(O)CC[C@H]2[C@@H]3CCC4=Cc5oncc5CC4(C)[C@H]3CCC21C (stereo partly specified)
- AC50 [1]: 1.58 µM (inconclusive)
